Reference: patent US5432165A, “Methods for the treatment of infection caused by Hepatitis B virus (HBV)” (priority 1992, dated 1995)
“Also recorded” adds a separate entry of the source.

Experiments:
[1] = Oral FIAU in immune-competent patients with chronic hepatitis B: adverse experiences; assay type: in vivo, human
Method: Consecutively qualifying patients will be used for each dose group and patients will not be assigned to dose based on either disease severity or expected tolerance. Tolerance will be determined with antiemetic therapy given concomitantly as necessary should a patient experience sustained nausea or two or more episodes of vomiting. Compazine, 10 mg p.o. Q6H or 25 mg p.r. Q12H will be used.
The side effects that will be monitored will include gastrointestinal irritation, bone marrow suppression, neurologic, and muscular toxicity.

[2] = Adverse Experience Summary (Table II), HIV-infected patients; assay type: in vivo, human
Description: A summary of the adverse effects experienced by some of the patients involved in the various dosage studies conducted are presented in Table II, attached hereto. Where no entry is given, no adverse experience was observed.

[3] = month long TID dosing of FIAC; cited from earlier work
[4] = Peak and trough plasma levels of FIAU and FAU by HPLC; assay type: in vivo, human; settings: for concentration at 24 h: FIAU trough plasma concentration
Description: Additionally at Baseline, archive plasma samples were taken.

[5] = Stability in an acid environment; assay type: physicochemical; settings: such as is found in the human stomach
[6] = tested on: CMV; settings: read-out: in vitro ED90; cited from earlier work
[7] = tested on: HSV-1; settings: read-out: in vitro ED90; cited from earlier work
[8] = Safety of oral FIAU in HIV-infected patients with chronic hepatitis B
Method: Cohorts of five HIV-infected patients with chronic hepatitis B were studied at the tolerated doses. Plasma levels of FIAU and its major deiodinated metabolite FAU were determined two hours after dosing (peak levels) and just prior to dosing (trough levels) following the initial dose of FIAU and again on Days 3, 7, and 14 in order to make estimates of pharmacokinetic parameters including accumulation of drug or principal metabolite.
This study is an open label, uncontrolled trial. […] Tolerated doses could be studied in an additional five patient cohort of chronic hepatitis B patients, who were potentially more at risk of side effects. A month of post-treatment follow-up was provided for the hepatitis cohorts due to the known propensity of this disease to "flare" after therapy.
Additionally, all patients had to have completed the screening tests within four weeks of starting therapy, except for diagnostic HSV, VZV or CMV cultures. Those enrolled into the five patient cohorts of chronic hepatitis B patients had the same entry requirements, except that they had to have a history of chronic hepatitis B and be surface antigen positive. Liver function tests (AST, ALT, GGT, and bilirubin) could be Grade 2 or less at study entry for these patients. Patients receiving pentamidine aerosol for prophylaxis of recurrent Pneumocystis pneumonia could continue on this therapy during the study.
Patients were evaluated clinically at the screening visit, and on Days 1, 3, 7, 10, and 14. The hepatitis patients were additionally evaluated on Days 21 and 42. The blood chemistry and urinalysis tests were repeated additionally on Days 2 and 5.
Clinical evaluations consisted of a physical exam, which included a test of lower extremity muscle strength, medical history, systems review, grading of non-laboratory signs and symptoms of toxicity, and listing of concomitant medications. Additionally, at visits with clinical evaluations after Day 1, any adverse experiences were recorded.
The Day 3 safety profile consisted of the clinical evaluation, hematology, serum biochemistry, urinalysis, stool guaiac tests and plasma samples for peak and trough levels of FIAU and its major metabolite FAU. On Day 7 patients underwent clinical evaluation, an ECG, peak and trough serum samples, T cell profile, and hematology, serum biochemistry, urinalysis, and stool guaiac tests. A clinical evaluation, hematology, serum biochemistry, and urinalysis tests were done on Day 10. These were repeated for the Day 14 evaluation with the addition of an ECG, T cell profile, stool guaiac, and peak and trough plasma samples. The post-treatment evaluations of the hepatitis patients on Days 21 and 42 consisted of a clinical evaluation and serum biochemistry tests.

[9] = typical; read-out: cellular toxicity concentration (ID50); cited from earlier work
[10] = human, in vivo, po, 1 mg/kg/day, 24 h

## O=c1[nH]c(=O)n([C@@H]2O[C@H](CO)[C@@H](O)[C@@H]2F)cc1I [FIAU, 1-(2'-deoxy-2'-fluoro-β-D-arabinofuranosyl)-5-iodouracil]
[1]; 0.05 mpk, patient 1C
  days on which mild fatigue was experienced: Day 8
[1]; 0.1 mpk, individual patients (footnotes a-d: 1A, 2A, 3A, 6A)
  days on which mild fatigue was experienced: Days 3, 8, 14, 21, 28, and Week 5; also recorded: Days 7, 14, and 18
[1]; 0.1 mpk, patient 6A
  days on which mild nausea was experienced: Days 3, 7, 14, and 21
[1]; 0.25 mpk, individual patients (footnotes e, g: 4B, 6B)
  days on which mild fatigue was experienced: Days 14, 21, 28, Week 5, and Month 2
[1]; 0.25 mpk, patient 5B
  days on which mild nausea was experienced: Day 3
[2]; 0.1 mg/kg-day
  Incidence: ALT elevation, moderate (2.5-5.0x): 2/4
  Incidence: ALT elevation, severe (>5x): 1/4
  Incidence: AST elevation, moderate (2.5-5.0x): 2/4
  Incidence: AST elevation, severe (>5x): 1/4
  Incidence: Fatigue, moderate: 1/4
  Incidence: Hyperbilirubemia, mild: 2/4
  Incidence: Hypercalcemia, mild: 1/4
  Incidence: Hypocalcemia, mild: 1/4
  Incidence: Hypoglycemia, mild: 1/4
  Incidence: Hyponatremia, mild: 1/4
[2]; 0.5 mg/kg-day
  Incidence: ALT elevation, mild (1.25-2.5x): 3/10
  Incidence: ALT elevation, severe (>5x): 2/10
  Incidence: AST elevation, mild (1.25-2.5x): 3/10
  Incidence: AST elevation, moderate (2.5-5.0x): 1/10
  Incidence: AST elevation, severe (>5x): 2/10
  Incidence: Diarrhea, mild: 1/10
  Incidence: Disoriented, mild: 1/10
  Incidence: Fatigue, mild: 3/10
  Incidence: Fatigue, moderate: 1/10
  Incidence: Headache, mild: 2/10
  Incidence: Headache, moderate: 1/10
  Incidence: Hemauria, moderate: 1/10
  Incidence: Hypophosphatemia, moderate: 1/10
  Incidence: Nausea, mild: 3/10
  Incidence: Nausea, moderate: 1/10
  Incidence: Proteinuria, mild: 1/10
  Incidence: Stomatitis, moderate: 1/10
  Incidence: Vomiting, mild: 2/10
  Incidence: Weakness, mild: 2/10
[2]; 1.0 mg/kg-day
  Incidence: ALT elevation, mild (1.25-2.5x): 4/9
  Incidence: ALT elevation, moderate (2.5-5.0x): 1/9
  Incidence: ALT elevation, severe (>5x): 3/9
  Incidence: AST elevation, mild (1.25-2.5x): 4/9
  Incidence: AST elevation, moderate (2.5-5.0x): 1/9
  Incidence: AST elevation, severe (>5x): 3/9
  Incidence: Abdominal Cramping, moderate: 1/9
  Incidence: Constipation, mild: 1/9
  Incidence: Decreases sensations, mild: 1/9
  Incidence: Diarrhea, mild: 2/9
  Incidence: Difficulty focusing, mild: 1/9
  Incidence: Dizziness, mild: 1/9
  Incidence: Fatigue, mild: 2/9
  Incidence: Fatigue, moderate: 1/9
  Incidence: Fatigue, severe: 1/9
  Incidence: Headache, mild: 1/9
  Incidence: Headache, severe: 1/9
  Incidence: Heartbum, mild: 1/9
  Incidence: Light Stools, mild: 1/9
  Incidence: Nausea, mild: 6/9
  Incidence: Nausea, moderate: 1/9
  Incidence: Paresibesia (extremities), mild: 1/9
  Incidence: Vomiting, mild: 1/9
  Incidence: Weakness, mild: 2/9
  Incidence: Weakness, moderate: 1/9
  Incidence: myositis, severe: 1/9
[3]
  accumulation in the plasma: neither FIAC, FIAU, or their metabolites accumulated in the plasma
[4]; 1.0 mg/kg-day, steady state, Days 3-14
  FIAU peak plasma concentration, range maximum: 1.66 µg/mL
[4]; FIAU 1.0 mg/kg-day, 14 days
  accumulation in the plasma with continued dosing: Neither FIAU nor FAU tended to accumulate; also recorded: Neither compound tended to accumulate
[4]; human, in vivo, po, 1 mg/kg/day
  FIAU trough plasma value, typical: under 0.2 μg/ml
[4]; [10]
  FIAU peak plasma concentration, mean: 0.58 µg/mL
  FIAU trough plasma concentration, mean: 0.05 µg/mL
[4]; human, in vivo, po, 1 mg/kg/day, FIAU peak plasma concentration, mean
  Cmax at 24 h: 580 ng/mL
[4]; human, in vivo, po, 1 mg/kg/day, FIAU peak plasma value at steady state, average
  Cmax at 2 h: ~1000 ng/mL
[4]; human, in vivo, po, 1 mg/kg/day, mean
  concentration at 24 h: 50 ng/mL
[4]; human, in vivo, po, 1 mg/kg/day, range maximum
  concentration at 24 h: 130 ng/mL
[5]
  stability in an acid environment: stable in an acid environment
[6]
  EC90: ~0.5 µM
[7]
  EC90: ~0.05 µM
[8]; 0.1 mg/kg-day
  tolerance compared with 1.0 or 0.5 mg/kg-day: much better tolerated
[8]; 0.1 mg/kg-day, four patients
  incidents of fatigue: only one incident of fatigue
[8]; 1.0 mg/kg-day TID 14 days, six hepatitis patients
  tolerance of oral FIAU: completed the 14 days of therapy with no untoward effects; also recorded: relatively well-tolerated; also recorded: All six patients completed the full course of therapy
[8]; 1.0 mg/kg-day, 28 days after completion of therapy
  increase in AST and ALT values, Patient 406: ~5 fold
[8]; 1.0 mg/kg-day, Patient 101, after dosing was completed
  myositis: severe myositis; also recorded: One patient experienced an episode of myositis
[8]; 1.0 mg/kg-day, hepatitis patients
  average drop in lymphocytes: 750 cells/mm^3
[8]; 1.0 mg/kg-day, hepatitis patients, Baseline to Day 14, p=0.03
  decrease in average CD4 count: 40%
[8]; 1.0 mg/kg-day, hepatitis patients, 691 at Baseline
  average CD4 count at Day 14: 415
[8]; 1.0 mg/kg-day, hepatitis patients, baseline average 4,690, p=0.0085
  average WBC at end of therapy: 3,430
[8]; 1.0 mg/kg-day, hepatitis patients, not significant
  average drop in neutrophils: approximately 300 cell/mm^3
[8]; 1.0 mg/kg-day, hepatitis patients, p=0.00125
  decrease in lymphocytes: 39%
[8]; 1.0 mg/kg-day, hepatitis patients, p>0.1
  significance of increases in liver enzymes during therapy: increases in liver enzymes were not
[8]; 1.0 mg/kg-day, six hepatitis patients
  patients with mild to moderate nausea: Four patients reported mild to moderate nausea
[8]; 1.0 mg/kg-day, very end of therapy, back below Baseline after a month of follow-up
  change of AST and ALT values, Patient 401: doubling
[8]; doses of 0.1 to 1.0 mg/kg-day, HIV-infected patients with chronic hepatitis B
  toxicity overall: have not produced unacceptable toxicity
[8]; the other groups (1.0 and 0.5 mg/kg-day)
  incidence of fatigue: 40-50%
[9]
  CC50: ~10 µM
